Laboratory results taken from PMC11571797, “Vitamin B6 inhibits activity of Helicobacter pylori adenylosuccinate synthetase and growth of reference and clinical, antibiotic-resistant H. pylori strains” (Journal of Enzyme Inhibition and Medicinal Chemistry, 2024).

Molecular target: T1, adenylosuccinate synthetase (AdSS) (Helicobacter pylori, UniProt P56137)
T1 construct: gene purA
Assay: X-ray crystal structure with IMP ([…] A); enzyme inhibition, GTP-competitive, and time-dependent inactivation (IC50^eq […] without GTP)
Type: biochemical

T1 sequence (P56137 whole entry): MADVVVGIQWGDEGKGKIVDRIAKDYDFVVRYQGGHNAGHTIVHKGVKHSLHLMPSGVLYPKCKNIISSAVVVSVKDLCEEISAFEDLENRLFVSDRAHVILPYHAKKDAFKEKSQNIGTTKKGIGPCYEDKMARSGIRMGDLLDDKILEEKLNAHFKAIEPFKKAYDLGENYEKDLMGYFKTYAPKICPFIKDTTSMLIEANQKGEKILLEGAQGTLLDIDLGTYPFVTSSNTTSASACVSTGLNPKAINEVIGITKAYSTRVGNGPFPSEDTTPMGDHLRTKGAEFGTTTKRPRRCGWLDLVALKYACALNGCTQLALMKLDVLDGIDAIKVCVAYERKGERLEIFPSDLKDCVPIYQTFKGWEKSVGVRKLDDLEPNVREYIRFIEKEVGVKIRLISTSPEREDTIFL

Compound: Cc1ncc(COP(=O)(O)O)c(C=O)c1O [PLP, pyridoxal 5'-phosphate]
- Ki: 6.95 µM
